Read-outs that look alike come from different tables or passages of the source.
Key:
[1] = target: T1, BuChE (Rattus norvegicus, UniProt Q9JKC1); experiment: In-vitro anticholinesterase effect (Table 6), BuChE; format: biochemical; conditions: for inhibition at 10 µM: read-out: inhibition activity BuChE at 10(μM); for inhibition activity BuChE at 10(μM): Table 6
T1 construct: from tissue; host or cells: rat serum
Method: (§1) In the present invention a calorimetric method reported by Ellman was used to determine the effect of inhibition of the pharmaceutical on enzyme activity. The total volume of the solution of the enzyme activity reaction was 4 ml, which contained 0.3 mmol/L of acetylcholin iodide (acetylcholinesterase substrate), or 0.4 mmol/L of butyrylcholin iodide (butyrylcholinesterase substrate), 1 ml of the buffer solution of 25 mmol/L of phosphate of pH 7.4, and water to make up to 4 ml (including the amount of the enzyme solution and the testing reagent added afterwards). After the solution was kept at 37° C. for 5 minutes, 0.1-0.2 ml of enzyme solution (red cell membrane or serum of rat) was added, or 0.1-0.3 ml of the testing reagent was added at the same time. The solution was kept at the same temperature for another 8 minutes. Then 1 ml of 3% of sodium lauryl sulphate was added to terminate the reaction. Finally 1 ml of 0.2% 5,5-dithio-2,2′-nitro-benzoic acid solution was added for developing.

[2] = target: T2, butyrylcholinesterase (BuChE) (Rattus norvegicus, UniProt Q9JKC1); experiment: In-vitro anticholinesterase effect, colorimetric method (Ellman), BuChE from rat's serum; format: biochemical
T2 construct: from tissue; host or cells: rat serum
Method: as §1
(§2) AChE taken from rat's red cell membrane. BuChE taken from rat's serum.
(§3) AChE taken from homogenate of rat's cortex. BuChE taken from rat's serum.

[3] = target: T3, acetylcholinesterase (AChE) (Rattus norvegicus, UniProt P37136); experiment: biochemical; format: biochemical
T3 construct: from tissue; host or cells: rat red cell membrane
Method: as §1, §2
T3 sequence (P37136 other isoform, or with tags, fused parts or gaps): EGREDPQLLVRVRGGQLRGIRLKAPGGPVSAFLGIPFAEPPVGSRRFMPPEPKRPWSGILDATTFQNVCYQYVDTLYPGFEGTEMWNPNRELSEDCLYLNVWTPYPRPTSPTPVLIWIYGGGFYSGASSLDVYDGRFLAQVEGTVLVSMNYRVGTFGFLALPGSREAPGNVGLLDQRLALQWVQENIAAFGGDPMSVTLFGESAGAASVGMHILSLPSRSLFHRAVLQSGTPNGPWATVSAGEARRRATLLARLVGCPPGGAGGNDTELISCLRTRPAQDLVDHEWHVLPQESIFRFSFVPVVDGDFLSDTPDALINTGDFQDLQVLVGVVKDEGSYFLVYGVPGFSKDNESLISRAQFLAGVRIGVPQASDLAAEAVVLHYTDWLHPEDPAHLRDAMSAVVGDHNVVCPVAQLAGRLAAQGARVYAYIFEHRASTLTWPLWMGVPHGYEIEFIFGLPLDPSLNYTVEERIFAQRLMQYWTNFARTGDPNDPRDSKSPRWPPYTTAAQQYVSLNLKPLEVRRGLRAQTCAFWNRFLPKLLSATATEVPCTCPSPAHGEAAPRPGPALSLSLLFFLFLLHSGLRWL

[4] = target: T4, acetylcholinesterase (AChE) (Rattus norvegicus, UniProt P37136); experiment: biochemical; format: biochemical; conditions: for IC50 ratio BuChE/AChE: cortex AChE, serum BuChE
T4 construct: from tissue; host or cells: homogenate of rat cortex
T4 sequence (P37136 32-614): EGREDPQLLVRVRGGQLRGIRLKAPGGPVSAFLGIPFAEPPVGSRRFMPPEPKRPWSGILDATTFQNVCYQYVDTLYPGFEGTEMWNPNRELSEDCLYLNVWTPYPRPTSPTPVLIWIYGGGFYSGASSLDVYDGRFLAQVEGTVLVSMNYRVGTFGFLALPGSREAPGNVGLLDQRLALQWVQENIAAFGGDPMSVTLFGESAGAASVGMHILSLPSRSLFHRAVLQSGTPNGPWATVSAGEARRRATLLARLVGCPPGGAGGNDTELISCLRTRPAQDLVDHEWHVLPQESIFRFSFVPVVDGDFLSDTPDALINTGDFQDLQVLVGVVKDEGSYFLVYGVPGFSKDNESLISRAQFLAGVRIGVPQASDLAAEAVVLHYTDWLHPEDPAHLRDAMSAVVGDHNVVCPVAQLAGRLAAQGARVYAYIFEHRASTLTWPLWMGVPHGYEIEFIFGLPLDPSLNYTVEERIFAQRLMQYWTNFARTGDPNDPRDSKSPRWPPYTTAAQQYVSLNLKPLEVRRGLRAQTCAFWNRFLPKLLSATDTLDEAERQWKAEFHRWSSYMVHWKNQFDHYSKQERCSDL
Method: as §1, §3

[5] = target: T5, AChE (Rattus norvegicus, UniProt P37136); experiment: biochemical
T5 construct: 0.1-0.2 ml of enzyme solution (red cell membrane or serum of rat) was added; from tissue; host or cells: rat tissue
T5 sequence (P37136 32-614): T4 sequence (P37136 32-614)
Method: as §1

[6] = tested on: memory impairment caused by scopolamine; experiment: 8-arm maze spatial distinction operation of rat, memory impairment caused by scopolamine; format: in vivo; conditions: rats, 8-arm maze; scopolamine + huperzine A 0.15 + 0.25 mg/kg ip + po
[7] = Critical toxicity on mice (Bliss method); format: in vivo; conditions: mouse, in vivo, po, mice, p.o., Bliss method, mortality within 7 days
Method: Test of each pharmaceutical was carried out using 4-5 dosage group.
Mortality within 7 days was observed.

[8] = read-out: concentration for inhibition of 50% of enzyme activity (IC50) acetylcholinesterase (AChE)
[9] = read-out: concentration for inhibition of 50% of enzyme activity (IC50) butyrylcholinesterase (BuChE), Table 1, BuChE taken from rat's serum
[10] = read-out: concentration for inhibition of 50% of enzyme activity (IC50) butyrylcholinesterase (BuChE), Table 2, BuChE taken from rat's serum
[11] = read-out: concentration for inhibition of 50% of enzyme activity (IC50) acetylcholinesterase (AChE), Table 2, AChE taken from homogenate of rat's cortex
[12] = Table 1, AChE taken from rat's red cell membrane
[13] = read-out: inhibition activity AChE IC50
[14] = Table 2, AChE taken from homogenate of rat's cortex
[15] = Table 6, read-out: inhibition activity AChE IC50

T2 sequence (Q9JKC1 24-597): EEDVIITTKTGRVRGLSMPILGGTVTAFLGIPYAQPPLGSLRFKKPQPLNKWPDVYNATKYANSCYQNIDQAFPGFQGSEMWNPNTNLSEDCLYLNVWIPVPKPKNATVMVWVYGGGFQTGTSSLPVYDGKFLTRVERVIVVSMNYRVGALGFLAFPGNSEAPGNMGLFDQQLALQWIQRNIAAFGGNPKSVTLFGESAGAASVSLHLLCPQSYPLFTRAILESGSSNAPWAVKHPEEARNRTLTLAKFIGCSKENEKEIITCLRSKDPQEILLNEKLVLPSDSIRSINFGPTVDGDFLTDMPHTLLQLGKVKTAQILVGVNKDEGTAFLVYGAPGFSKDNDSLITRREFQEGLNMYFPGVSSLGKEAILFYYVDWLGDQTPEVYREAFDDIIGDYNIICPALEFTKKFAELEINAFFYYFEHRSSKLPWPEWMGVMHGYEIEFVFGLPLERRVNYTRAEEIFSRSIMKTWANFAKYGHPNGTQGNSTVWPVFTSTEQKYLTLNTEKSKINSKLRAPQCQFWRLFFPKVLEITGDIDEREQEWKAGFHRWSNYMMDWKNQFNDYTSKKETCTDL
T1 sequence (Q9JKC1 24-597): as above

Compound: COc1cc2c(cc1OC)C(=O)C(CC1CCN(Cc3ccccc3)CC1)C2 (stereo not drawn) [E-2020, reference compound]
- inhibition at 10 µM [1]: 2.9%

Compound: CNC(=O)Oc1ccc2c(c1)[C@]1(C)CCN(C)[C@@H]1N2C [Physostigmine, reference compound]
- IC50 [2]: 1260 nM

Compound: CC=C1C2C=C(C)CC1(NC(=O)CCC(=O)O)c1ccc(=O)[nH]c1C2 (stereo not drawn) [derivative No. 1]
- IC50 ratio BuChE/AChE [3]: 1092.5
- inhibition effect on acetylcholinesterase (in words) [3]: remarkable inhibition effect
- inhibition effect on acetylcholinesterase compared with huperzine A [3]: slightly weaker
- inhibition effect on acetylcholinesterase compared with physostigmine and galanthamine [3]: apparently stronger
- selective inhibition effect on acetylcholinesterase compared with huperzine A [3]: greater selective inhibition effect
- IC50 [3, 8]: 348 nM
- IC50 [2, 9]: 380000 nM
- IC50 [2, 10]: 380000 nM
- inhibition effect on butyrylcholinesterase (pseudo enzyme) compared with huperzine A ([2]; see Tables 1, 2 and 6): weaker inhibition effect
- IC50 ratio BuChE/AChE ([4]; Table 2): 1094.1
- IC50 [4, 11]: 348 nM

Compound: CC=C1C2C=C(C)CC1(NC(=O)Cc1ccccc1)c1ccc(=O)[nH]c1C2 (stereo not drawn) [derivative No. 2]
- IC50 [3, 12]: 9050 nM
- IC50 [2]: > 347000 nM

Compound: CC=C1C2C=C(C)CC1(NC(=O)c1cccnc1)c1ccc(=O)[nH]c1C2 (stereo not drawn) [derivative No. 4]
- IC50 [3, 12]: > 12900 nM
- IC50 [2]: 58900 nM

Compound: CC=C1C2C=C(C)CC1(NC(=O)c1cccnc1)c1ccc(=O)n(C(=O)c3cccnc3)c1C2 (stereo not drawn) [derivative No. 5]
- IC50 [3, 12]: > 11000 nM
- IC50 [2]: > 275000 nM

Compound: CC=C1C2C=C(C)CC1(NC(=O)C1=CN(C)CC=C1)c1ccc(=O)[nH]c1C2 (stereo not drawn) [derivative No. 6]
- IC50 ([3]; read-out: concentration for inhibition of 50% of enzyme activity (IC50) acetylcholinesterase (AChE), Table 1, AChE taken from rat's red cell membrane): > 12300 nM
- IC50 [2, 9]: > 309000 nM

Compound: CC=C1C2C=C(C)CC1(NC(=O)C(C)C)c1ccc(=O)[nH]c1C2 (stereo not drawn) [derivative No. 10]
- IC50 [3, 8]: > 15800 nM
- IC50 [2, 9]: 110000 nM

Compound: CC=C1C2C=C(C)CC1(NC(=O)c1ccccc1)c1ccc(=O)[nH]c1C2 (stereo not drawn) [derivative No. 11]
- IC50 [3, 8]: > 14400 nM
- IC50 [2, 9]: 363000 nM

Compound: CC=C1C2C=C(C)CC1(NC(=O)c1ccccn1)c1ccc(=O)[nH]c1C2 (stereo not drawn) [derivative No. 12]
- IC50 [2, 10]: 251000 nM
- IC50 ratio BuChE/AChE ([4]; Table 2): 1995.2
- IC50 [4, 11]: 126 nM

Compound: CC=C1C2C=C(C)CC1(NC(=O)c1ccncc1)c1ccc(=O)[nH]c1C2 (stereo not drawn) [derivative No. 14]
- BuChE/AChE [5]: >100
- inhibition activity AChE at 1(μM) [5]: 76.4
- IC50 [5, 13]: 360 nM
- inhibition activity BuChE at 10(μM) [1]: 2.5

Compound: CC=C1C2C=C(C)CC1(NC(=O)c1ccccc1C(=O)O)c1ccc(=O)[nH]c1C2 (stereo not drawn) [derivative No. 15]
- IC50 [2, 10]: 502000 nM
- IC50 ratio BuChE/AChE ([4]; Table 2): 795.6
- IC50 [4, 11]: 631 nM
- inhibition activity AChE at 1(μM) [5]: 60.8
- inhibition activity BuChE at 10(μM) [1]: 0

Compound: CC=C1C2C=C(C)CC1(NC(=O)/C=C/CC(=O)O)c1ccc(=O)[nH]c1C2 (stereo not drawn) [derivative No. 16]
- BuChE/AChE [5]: >200
- inhibition activity AChE at 1(μM) [5]: 80.7
- IC50 [5, 13]: 210 nM
- inhibition activity BuChE at 10(μM) [1]: 1.8

Compound: CC=C1C2C=C(C)CC1(N=Cc1ccccc1O)c1ccc(=O)[nH]c1C2 (stereo not drawn) [derivative No. 20]
- IC50 [2]: 126000 nM
- IC50 [4, 14]: 178 nM
- IC50 ratio BuChE/AChE ([4]; Table 2): 708.1
- IC50 [5]: 94 nM
- BuChE/AChE ([5]; Table 6): >500
- inhibition at 1 µM ([5]; Table 6): 83.7%
- inhibition at 10 µM [1]: 0%

Compound: CC=C1C2C=C(C)CC1(N=Cc1cc(OC)c(OC)c(OC)c1)c1ccc(=O)[nH]c1C2 (stereo not drawn) [derivative No. 21]
- IC50 [2]: 158000 nM
- IC50 [4, 14]: 141 nM
- inhibition at 1 µM ([5]; Table 6): 84.9%
- inhibition at 10 µM [1]: 0%

Compound: CC=C1C2C=C(C)CC1(N=Cc1ccc(OC)c(OC)c1O)c1ccc(=O)[nH]c1C2 (stereo not drawn) [derivative No. 22]
- IC50 [2]: 126000 nM
- IC50 [4, 14]: 126 nM
- IC50 ratio BuChE/AChE ([4]; Table 2): 1000.0
- inhibition at 1 µM ([5]; Table 6): 68.7%
- inhibition at 10 µM [1]: 0%

Compound: CC=C1C2C=C(C)CC1(N=Cc1ccc(O)cc1O)c1ccc(=O)[nH]c1C2 (stereo not drawn) [derivative No. 23]
- IC50 [2]: 200000 nM
- IC50 [4, 14]: 251 nM
- IC50 ratio BuChE/AChE ([4]; Table 2): 794.2
- inhibition at 1 µM ([5]; Table 6): 34.4%
- inhibition at 10 µM [1]: 0%

Compound: CC=C1C2C=C(C)CC1(N=Cc1cccc(O)c1O)c1ccc(=O)[nH]c1C2 (stereo not drawn) [derivative No. 24]
- IC50 [4, 14]: 100 nM
- inhibition at 1 µM ([5]; Table 6): 78.3%
- IC50 [5, 15]: 280 nM
- inhibition at 10 µM [1]: 0%

Compound: CC=C1C2C=C(C)CC1(N=Cc1ccc(O)c(O)c1O)c1ccc(=O)[nH]c1C2 (stereo not drawn) [derivative No. 25]
- IC50 [2]: 251000 nM
- IC50 [4, 14]: 159 nM
- IC50 ratio BuChE/AChE ([4]; Table 2): 1584.9
- inhibition at 1 µM ([5]; Table 6): 62%
- inhibition at 10 µM [1]: 0%

Compound: CC=C1C2C=C(C)CC1(N=Cc1cccc(OC)c1O)c1ccc(=O)[nH]c1C2 (stereo not drawn) [derivative No. 26]
- BuChE/AChE ([5]; Table 6): >300
- inhibition at 1 µM ([5]; Table 6): 79.7%
- IC50 [5, 15]: 180 nM
- inhibition at 10 µM [1]: 1.1%

Compound: CC=C1C2C=C(C)CC1(N=CC=Cc1ccccc1)c1ccc(=O)[nH]c1C2 (stereo not drawn) [derivative No. 27]
- IC50 [2]: 100000 nM
- IC50 [4]: 126 nM
- IC50 ratio BuChE/AChE ([4]; Table 2): 794.3
- BuChE/AChE ([5]; Table 6): >500
- inhibition at 1 µM ([5]; Table 6): 84%
- IC50 [5, 15]: 110 nM
- inhibition at 10 µM [1]: 3.3%

Compound: CC=C1C2C=C(C)CC1(N=Cc1cccnc1)c1ccc(=O)[nH]c1C2 (stereo not drawn) [derivative No. 44]
- BuChE/AChE ([5]; Table 6): >500
- inhibition at 1 µM ([5]; Table 6): 85.6%
- IC50 [5, 15]: 110 nM
- inhibition at 10 µM [1]: 1.8%

Compound: C/C=C1\C2C=C(C)C[C@]1(N)c1ccc(=O)[nH]c1C2 [huperzine A, (5R, 9R, 11E)-5-amino-11-ethylidene-5,6,9,10-tetrahydro-7-methyl-5,9-methylene cycloocta [b] pyridyl-2(1H)-one, reference compound]
- No. of mistakes in operation before reaching the standard, reference memory (X + SEM) [6]: 0.57
- No. of mistakes in operation before reaching the standard, working memory (X + SEM) [6]: 0.86
- LD50 at 7 days ([7]; first of two columns headed LD50, read-out: LD50 (first column) (95% confidence limit)): 3.1 mg/kg
- LD50 at 7 days ([7]; second of two columns headed LD50, read-out: LD50 (second column) (95% confidence limit)): 4.6 mg/kg

— USRE38460E1 (priority 1994, dated 2004)
